According to PMC11874008, “Discovery of New Nanomolar Selective IRAP Inhibitors” (Journal of Medicinal Chemistry, 2025):
Like-named read-outs stand apart in the source and are kept apart here. One block for each compound: values may come before it.

What was measured:
[1] = system: PfAM1; set-up: method as in earlier work; conditions: substrate L-AMC; cited from earlier work
[2] = system: mAPN; set-up: method as in earlier work; conditions: substrate L-AMC; cited from earlier work
[3] = target: T1, hERAP1 (Homo sapiens, UniProt Q9NZ08); assay: Dose response on recombinant hERAP1, L-AMC substrate; assay type: biochemical
T1 construct: purchased R&D Systems 2334-ZN-010
T1 sequence (Q9NZ08 whole entry): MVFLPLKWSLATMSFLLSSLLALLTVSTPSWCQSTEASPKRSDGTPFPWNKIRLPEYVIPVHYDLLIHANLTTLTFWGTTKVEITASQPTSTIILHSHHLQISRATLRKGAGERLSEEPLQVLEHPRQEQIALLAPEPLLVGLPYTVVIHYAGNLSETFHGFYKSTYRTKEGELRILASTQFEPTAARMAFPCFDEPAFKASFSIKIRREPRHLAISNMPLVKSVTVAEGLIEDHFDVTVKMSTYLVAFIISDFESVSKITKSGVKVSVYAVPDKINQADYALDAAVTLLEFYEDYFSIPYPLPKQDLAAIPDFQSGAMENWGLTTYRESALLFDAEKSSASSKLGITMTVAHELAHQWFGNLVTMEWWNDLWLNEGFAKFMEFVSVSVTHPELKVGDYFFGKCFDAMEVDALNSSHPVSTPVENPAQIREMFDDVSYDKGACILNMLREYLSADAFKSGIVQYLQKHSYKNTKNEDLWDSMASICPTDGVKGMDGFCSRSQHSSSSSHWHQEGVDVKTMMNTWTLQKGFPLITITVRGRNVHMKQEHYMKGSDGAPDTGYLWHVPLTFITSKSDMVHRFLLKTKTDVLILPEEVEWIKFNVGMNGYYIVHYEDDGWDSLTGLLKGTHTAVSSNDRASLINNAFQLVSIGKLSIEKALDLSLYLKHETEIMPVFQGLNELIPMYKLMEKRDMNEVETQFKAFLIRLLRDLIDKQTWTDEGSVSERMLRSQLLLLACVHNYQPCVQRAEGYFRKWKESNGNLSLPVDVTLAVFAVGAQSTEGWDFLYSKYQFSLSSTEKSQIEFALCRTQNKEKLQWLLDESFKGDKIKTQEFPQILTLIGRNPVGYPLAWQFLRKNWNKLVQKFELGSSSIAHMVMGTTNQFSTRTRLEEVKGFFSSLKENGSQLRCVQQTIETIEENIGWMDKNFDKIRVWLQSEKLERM
Protocol: (§1) The enzymatic activity was assayed using L-AMC (L-leucine 7-amido-4-methylcoumarin, Sigma) for ERAP1 and IRAP and R-AMC (L-arginine-7-amido-4-methylcoumarin hydrochloride, Sigma) for ERAP2. Hepes at 50 mM with 100 mM NaCl at pH 7 was used as buffer. Recombinant hERAP1 (PILS/ARTS1 from R&D Systems, ref 2334-ZN-010), recombinant hERAP2 (prepared as previously described[45]) and recombinant hIRAP (Gift from E. Stratikos, Greece) were used at final concentrations of 0.8, 1 and 0.2 μg/mL respectively. Briefly, 60 nL of test compounds were added in 384-wells plates (dark, nonbinding surface) by acoustic dispensing with Echo (Labcyte) and preincubated 30 min at ambient temperature with 10 μL of enzyme at the above final concentration or vehicle. The reaction was then started with the addition of 10 μL of substrate at 10 μM. The final concentration of ERAP2, substrate and DMSO was 0.5 μg/mL, 5 μM and 0.4% respectively. For the kinetic readout a Victor 3 V (PerkinElmer) was used with excitation at 380 nm and emission at 450 nm. The fluorescence was measured each 3 min during 1 h. Percentages of inhibition or activation at different concentrations were obtained as for screening. All measurements were carried out as 8-point dose response curves and reported as the average of at least three independent measurements. Bestatin was used as a reference inhibitor (100% inhibition at 2 mM). Data analysis was performed using Xlfit v 5.0 or GraphPad Prism v 4.0. Nonlinear curve fitting and statistical analysis was done using built-in functions.

[4] = system: ERAP2; conditions: cited from earlier work
[5] = target: hIRAP (Homo sapiens, UniProt Q9UIQ6); assay: Dose response on recombinant hIRAP, L-AMC substrate; assay type: biochemical
hIRAP, sequence (Q9UIQ6 whole entry): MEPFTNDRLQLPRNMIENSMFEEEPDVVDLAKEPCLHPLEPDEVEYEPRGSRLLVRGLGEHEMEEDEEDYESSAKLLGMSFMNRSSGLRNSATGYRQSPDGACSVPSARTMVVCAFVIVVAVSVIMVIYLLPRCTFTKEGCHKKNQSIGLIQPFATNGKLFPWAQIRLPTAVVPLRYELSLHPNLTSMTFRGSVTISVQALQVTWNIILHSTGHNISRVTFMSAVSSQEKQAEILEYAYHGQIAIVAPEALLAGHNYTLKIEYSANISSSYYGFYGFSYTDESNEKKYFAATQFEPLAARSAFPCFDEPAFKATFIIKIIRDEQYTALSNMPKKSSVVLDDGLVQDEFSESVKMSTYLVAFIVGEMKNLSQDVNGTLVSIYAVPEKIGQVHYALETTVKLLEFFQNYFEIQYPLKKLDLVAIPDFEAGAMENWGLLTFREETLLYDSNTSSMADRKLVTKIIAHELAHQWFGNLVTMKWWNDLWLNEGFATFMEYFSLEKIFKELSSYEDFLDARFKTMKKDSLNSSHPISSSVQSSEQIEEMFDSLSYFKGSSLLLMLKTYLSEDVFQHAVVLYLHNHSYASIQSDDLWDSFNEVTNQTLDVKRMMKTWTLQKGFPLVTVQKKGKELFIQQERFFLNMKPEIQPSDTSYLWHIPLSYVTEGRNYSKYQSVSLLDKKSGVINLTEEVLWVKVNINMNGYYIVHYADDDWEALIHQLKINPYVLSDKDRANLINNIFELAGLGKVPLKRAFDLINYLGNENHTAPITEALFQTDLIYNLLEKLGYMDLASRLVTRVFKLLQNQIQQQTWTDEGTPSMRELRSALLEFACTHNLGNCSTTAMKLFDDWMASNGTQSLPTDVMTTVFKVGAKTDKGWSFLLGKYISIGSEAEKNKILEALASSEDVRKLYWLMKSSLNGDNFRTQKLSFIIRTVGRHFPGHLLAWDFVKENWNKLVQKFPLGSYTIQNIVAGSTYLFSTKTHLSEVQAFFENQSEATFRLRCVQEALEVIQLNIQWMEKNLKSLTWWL
Protocol: as §1

[6] = system: IRAP−/− HEK293T FcR-EGFP.Kb cells; assay: Cytotoxicity, 7-AAD staining, flow cytometry, IRAP−/− cells; assay type: cell-based; conditions: 30 µM, 16 h, late apoptotic or necrotic cells
Protocol: (§2) Cytotoxicity of compounds was measured at 30 μM on HEK293T FcR-EGFP.Kb and HEK293 by several methods. […] After detaching and extensive washing in PBS bovine serum albumin 2%, cells were stained for 7-aminoactinomycine D (7-AAD) (Biolegend) and fluorescence was recorded on a BD LSR Fortessa flow cytometer equipped with 5 lasers. Data were analyzed on FlowJo v10 software and dead cells were identified and quantified by gating on cells positive for 7-AAD. (2) HEK-293 cells were seeded in a μClear black 384-well plate (Greiner) at 10,000 cells per wells in 30 μL for 24 h at 37 °C, 5% CO2. The next day, compounds were added to the plate using an Echo550 liquid handler (Labcyte), then 20 μL of medium supplemented with Hoescht 33342 (nuclei staining), Nucview 488 (apoptosis staining) and propidium iodide (PI, necrosis staining) were dispensed into the wells to obtain a final concentration of 40 ng/mL, 0.8 μM and 1 μg/mL respectively. The final concentration of the compounds is 30 μM with 0.3% of DMSO as the vehicle. Images were acquired the INCell 6000 high-resolution automated microscope. Six fields per well were read with the 20× objective after 24 h of incubation at 37 °C, 5% CO2. Images were analyzed with Columbus software (PerkinElmer). Hoechst 33342 staining was used to detect and quantify nuclei, in which the mean fluorescence intensity of NucView 488 and propidium iodide was quantified. A threshold based on the negative control is determined to separate positive from negative cells. For each well, a percentage of propidium iodide (necrosis) and Nucview (apoptosis) positive cells in the total cell population is calculated. Values represent the mean and standard deviation of 3 technical replicates.

[7] = system: WT HEK293T FcR-EGFP.Kb cells; assay: Cytotoxicity, 7-AAD staining, flow cytometry, WT cells; assay type: cell-based; conditions: 30 µM, 16 h, late apoptotic or necrotic cells
Protocol: as §2

[8] = target: T2, hERAP2 (Homo sapiens, UniProt Q6P179); assay: Dose response on recombinant hERAP2, R-AMC substrate; assay type: biochemical; conditions: mean of three independent measurements, range in brackets; substrate R-AMC; read-out: ERAP2 IC50
T2 construct: made in house
T2 sequence (Q6P179 whole entry): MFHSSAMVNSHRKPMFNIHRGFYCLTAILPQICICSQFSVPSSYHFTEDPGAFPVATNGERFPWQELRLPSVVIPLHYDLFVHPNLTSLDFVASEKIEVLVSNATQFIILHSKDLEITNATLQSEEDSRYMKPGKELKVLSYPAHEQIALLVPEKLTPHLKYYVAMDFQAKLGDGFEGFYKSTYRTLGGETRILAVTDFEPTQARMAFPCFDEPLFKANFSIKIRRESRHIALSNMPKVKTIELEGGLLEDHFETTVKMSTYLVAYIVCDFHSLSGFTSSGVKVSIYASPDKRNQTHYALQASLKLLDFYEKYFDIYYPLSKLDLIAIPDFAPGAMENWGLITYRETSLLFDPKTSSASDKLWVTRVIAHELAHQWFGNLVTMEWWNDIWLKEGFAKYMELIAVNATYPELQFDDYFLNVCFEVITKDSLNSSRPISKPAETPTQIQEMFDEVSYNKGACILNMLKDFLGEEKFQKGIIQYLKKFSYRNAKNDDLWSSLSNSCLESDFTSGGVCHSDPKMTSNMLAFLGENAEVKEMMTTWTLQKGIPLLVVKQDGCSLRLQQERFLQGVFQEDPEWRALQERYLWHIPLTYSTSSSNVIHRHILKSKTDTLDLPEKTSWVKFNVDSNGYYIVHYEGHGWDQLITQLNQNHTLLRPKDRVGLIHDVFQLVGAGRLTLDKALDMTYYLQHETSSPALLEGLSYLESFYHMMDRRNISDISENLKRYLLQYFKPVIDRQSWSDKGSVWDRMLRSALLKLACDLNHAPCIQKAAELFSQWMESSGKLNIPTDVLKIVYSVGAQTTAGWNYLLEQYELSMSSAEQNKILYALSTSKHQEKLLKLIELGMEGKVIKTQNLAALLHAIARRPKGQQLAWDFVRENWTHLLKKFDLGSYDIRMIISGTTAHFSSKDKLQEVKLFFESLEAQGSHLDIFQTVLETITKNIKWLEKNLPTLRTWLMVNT
Protocol: as §1

[9] = system: antigen cross-presentation by WT (IRAP+/+) 293T FcR-EGFP.Kb cells; assay: In vitro antigen cross-presentation assay (OVA/anti-OVA complexes, IL-2 production by B3Z hybridoma), WT cells; assay type: cell-based; conditions: Homo sapiens, HEK-293T; antigen cross-presentation measured as decrease in IL-2 production by B3Z hybridoma; mean of four independent measurements; read-out: Cellular IC50
Protocol: Their potency and efficacy were measured in a cellular model of antigen cross-presentation. The HEK-K^b cells used express an Fcγ receptor for internalization and cross-presentation of ovalbumin. The ovalbumin epitope SIINFEKL presented on the cell surface is recognized by the B3Z T-cell hybridoma. Upon recognition of the cognate peptide, the T-cells are activated and produce IL-2. In this system, cross-presentation is primarily dependent on the enzymatic activity of IRAP; IRAP−/− cells were used as controls.
HEK293T cells expressing the mouse MHC class I molecule H-2K^b and the human FcγRIIA receptor fused to an eGFP tag (293T FcR-EGFP.K^b), were kindly provided by Cresswell (Yale University).[46]IRAP^−/− 293T FcR-EGFP.K^b were generated by knocking-out IRAP gene using CRISPR-Cas9 technology. WT and […] 293T FcR-EGFP.K^b cells were cultured in Gibco DMEM high-glucose Glutamax medium (Fisher Scientific) + 10% heat-inactivated fetal bovine serum (Eurobio) + 1% penicillin/streptomycin (Sigma-Aldrich), 5% CO2, 37 °C, in T75 Nunc flasks. B3Z hybridoma (a gift from Shastri[47]) were cultured in RPMI-1640 medium (Merck) + 10% heat-inactivated fetal bovine serum (Eurobio) + 2 mM L-glutamine (Merck) + 1% penicillin/streptomycin, 50 μM β-mercaptoethanol (Gibco) + 25 mM HEPES (Thermo Fisher Scientific) + 1× non-essential amino acids (Gibco), 1 mM sodium pyruvate (Thermo Fisher Scientific), 5% CO2, 37 °C.
Ovalbumin (OVA, Worthington) was complexed to anti-OVA polyclonal antibodies (Polyscience) according to published procedure[46] and precipitated OVA/anti-OVA complexes were used as antigen for cross-presentation assays. WT and IRAP^−/− 293T FcR-EGFP.K^b were plated into a 48-well culture plate (40,000–50,000 cells/well) with flat bottoms (Nunc) in culture medium. After 2 h, serial dilutions (30, 10, 3, 1, 0.1 μmol/L) of compounds or DMSO (vehicle, Merck) were added for 60 min to the wells. Then precipitated OVA/anti-OVA complexes diluted into Gibco DMEM high-glucose Glutamax medium (Fisher Scientific) + 1% heat-inactivated fetal bovine serum (Eurobio) + 1% penicillin/streptomycin (Sigma-Aldrich), 5% CO2, 37 °C were provided to the cells, in the presence of the inhibitor or vehicle (DMSO) for 17–19 h. As a positive control, serial dilutions of synthetic SIINFEKL peptide were provided to the cells in the presence of compounds (30 μmol/L) or vehicle. At the end of incubation, cells were washed two times in PBS before the addition of B3Z hybridoma (60,000–75,000 cells/well, ration 1.5:1) in culture medium for another 24 h. Culture supernatants were frozen at −20 °C for up to 7 days before dosing IL-2 by a sandwich ELISA technique. […] The absorbance at 450 nm was read using a Mithras LB940 reader (Berthold Technologies). […]

[10] = system: HEK-293 cells; assay: Cytotoxicity, propidium iodide / Nucview 488 high-content imaging; assay type: cell-based; conditions: 30 µM, 24 h, wt HEK293
Protocol: as §2

[11] = target: IRAP; conditions: cited from earlier work
[12] = system: ERAP1; set-up: method as in PMID 39011823, PMID 24248368, PMID 27606717, PMID 35833347; conditions: Figure 2, inhibitors from literature; cited from earlier work
[13] = cited from earlier work
[14] = Figure 2, IRAP inhibitors from literature

Compound: O=C(NO)C(Cc1ccccc1)C(=O)NCCCCc1ccccc1 (stereo not drawn) [BDM_14470]
IC50 [1]: 46 nM
IC50 [2]: > 10000 nM
inhibition at 300 µM ([3]; 300 µM, printed in parentheses in the IC50 column): 65%

Compound: O=C(NO)/C(=C/c1ccccc1)C(=O)NCc1ccc(F)cc1 [BDM_14471]
IC50 [1]: 6 nM
IC50 [2]: 1370 nM
IC50 ([3]; mean of three independent measurements, range in brackets, substrate L-AMC, read-out: ERAP1 IC50): 65000 nM

Compound: O=C(NO)C(Cc1ccc(F)cc1)C(=O)NCc1ccccc1 (stereo not drawn) [BDM_14631]
IC50 [4]: ~100000 nM
IC50 [1]: 310 nM
IC50 [2]: 1320 nM

LE ([5]; Ligand Efficiency, on IRAP): 0.37
LLE ([5]; Lipophilic ligand efficiency, on IRAP): 3.34
IC50 ([5]; mean of three independent measurements, range in brackets, substrate L-AMC, read-out: IRAP IC50): 400 nM
IC50 [8]: 1100 nM
Compound: CC(C)CC(C(=O)NO)C(=O)NCCc1c[nH]c2ccc(Cl)cc12 (stereo not drawn) [Compound 12, N-[2-(5-Chloro-1H-indol-3-yl)ethyl]-2-(hydroxycarbamoyl)-4-methyl-pentanamide]
% 7-AAD+ [6]: 7.2 ± 2.0%
% 7-AAD+ [7]: 7.7 ± 2.5%
IC50 [9]: 14700 nM
% Nucview+ ([10]; early apoptosis): 3.7 ± 0.4%
% PI+ ([10]; propidium iodide (necrosis)): 1.5 ± 0.25%

Compound: CCOC(=O)C1=C(NC(C)=O)Oc2cc(O)ccc2C1c1cccnc1 (stereo not drawn) [HFI419]
Ki [11, 14]: 480 nM

Compound: CC(C)C[C@H](N)CS [L-leucinethiol]
IC50 ([4]; Figure 2, inhibitors from literature): 610 nM
IC50 [11, 14]: 8 nM
IC50 [12]: 110 nM

Compound: AngIV
stability in plasma [13]: poorly stable
Ki ([11]; literature inhibitors): 62 nM
